# Reference: US20250136576A1, “Heterocyclic Compounds and Uses Thereof” (ACEA Therapeutics, Inc., priority 2021, published 2025)
# Test system: H1975 cells
# Experiment: Cell proliferation and growth inhibition assay (CCK-8) in H1975
# Format: cell-based
# Conditions: Homo sapiens, NCI-H1975, 72 h, treated with test compounds for 72 hrs, CCK-8 viability, read-out: EGFR IC50 in H1975
# Method: MV-4-11 and H1975 cells were obtained from the American Type Culture Collection and KM12-luc cells were obtained from JCRB Cell Bank. All cell lines were maintained at 37° C. with 5% C02, in media supplemented with 10% fetal bovine serum and penicillin (100 units/mL) and streptomycin (100 μg/mL). MV-4-11 cells were maintained in Iscove's Modified Dubecco's Medium, H1975 cells were cultured with RPMI 1640 media, and KM12-luc cells were maintained in Dulbecco's Modification of Eagle's Medium. CCK-8 reagent was obtained from Yeasen.
# Cell proliferation was assessed by CCK-8 assay (Yeasen) per the manufacturer's instructions. The MV-4-11 (AML), H1975, and KM12-luc cells were seeded at 30,000, 3,000 and 2,500 cells per well onto 96-well plates, and after a 24 h incubation, the cells were treated with test compounds for 72 hrs. Cell viability was assayed by incubating the cells with CCK-8 reagent for 1-4 hrs. Absorbance was measured at OD450 using the Beckman DTX880. The data was calculated using GraphPad Prism version 6.01. The IC50 values were fitted using a non-linear regression model with a sigmoidal dose response.
row,SMILES,IC50 [nM]
1,"CC(=O)Nc1cc(Nc2ncc(F)c(-c3c[nH]c4c(C)cccc34)n2)ccc1N(C)CCN(C)C [Compound 525, N-(2-((2-(dimethylamino)ethyl)(methyl)amino)-5-((5-fluoro-4-(7-methyl-1H-indol-3-yl)pyrimidin-2-yl)amino)phenyl)acetamide]",406
2,"CN(C)CCN(C)c1ccc(Nc2ncc(F)c(-c3c[nH]c4c(F)cccc34)n2)cc1N [Compound 520, N^1-(2-(dimethylamino)ethyl)-N^4-(5-fluoro-4-(7-fluoro-1H-indol-3-yl)pyrimidin-2-yl)-N-methylbenzene-1,2,4-triamine]",1180
3,"CCC(=O)Nc1cc(Nc2nccc(-c3c[nH]c4c(C)cccc34)n2)ccc1N(C)CCN(C)C [Compound 550, N-(2-((2-(dimethylamino)ethyl)(methyl)amino)-5-((4-(7-methyl-1H-indol-3-yl)pyrimidin-2-yl)amino)phenyl)propionamide]",1510
4,"CCC(=O)Nc1cc(Nc2ncc(OC)c(-c3c[nH]c4c(OC)cccc34)n2)ccc1N(C)CCN(C)C [Compound 538, N-(2-((2-(dimethylamino)ethyl)(methyl)amino)-5-((5-methoxy-4-(7-methoxy-1H-indol-3-yl)pyrimidin-2-yl)amino)phenyl)propionamide]",3680
5,"CCC(=O)Nc1cc(Nc2ncc(OC)c(-c3c[nH]c4c(C)cccc34)n2)ccc1N(C)CCN(C)C [Compound 534, N-(2-((2-(dimethylamino)ethyl)(methyl)amino)-5-((5-methoxy-4-(7-methyl-1H-indol-3-yl)pyrimidin-2-yl)amino)phenyl)propionamide]",1300
6,"CC(=O)Nc1cc(Nc2nccc(-c3c[nH]c4c(F)cccc34)n2)ccc1N(C)CCN(C)C [Compound 546, N-(2-((2-(dimethylamino)ethyl)(methyl)amino)-5-((4-(7-fluoro-1H-indol-3-yl)pyrimidin-2-yl)amino)phenyl)acetamide]",1020
7,"CCC(=O)Nc1cc(Nc2ncc(F)c(-c3c[nH]c4c(C)cccc34)n2)ccc1N(C)CCN(C)C [Compound 526, N-(2-((2-(dimethylamino)ethyl)(methyl)amino)-5-((5-fluoro-4-(7-methyl-1H-indol-3-yl)pyrimidin-2-yl)amino)phenyl)propionamide]",656
8,"COc1cccc2c(-c3ccnc(Nc4ccc(N(C)CCN(C)C)c(NC(C)=O)c4)n3)c[nH]c12 [Compound 554, N-(2-((2-(dimethylamino)ethyl)(methyl)amino)-5-((4-(7-methoxy-1H-indol-3-yl)pyrimidin-2-yl)amino)phenyl)acetamide]",1030
9,"COc1cccc2c(-c3nc(Nc4ccc(N(C)CCN(C)C)c(N)c4)ncc3F)c[nH]c12 [Compound 528, N^1-(2-(dimethylamino)ethyl)-N^1-methyl-N^4-(5-fluoro-4-(7-methoxy-1H-indol-3-yl)pyrimidin-2-yl)benzene-1,2,4-triamine]",298
10,"CCC(=O)Nc1cc(Nc2ncc(C(F)(F)F)c(-c3c[nH]c4c(F)cccc34)n2)ccc1N(C)CCN(C)C [Compound 540, N-(2-((2-(dimethylamino)ethyl)(methyl)amino)-5-((4-(7-fluoro-1H-indol-3-yl)-5-(trifluoromethyl)pyrimidin-2-yl)amino)phenyl)propionamide]",95.4
11,"COc1cccc2c(-c3ccnc(Nc4ccc(N(C)CCN(C)C)c(N)c4)n3)c[nH]c12 [Compound 553, N^1-(2-(dimethylamino)ethyl)-N^4-(4-(7-methoxy-1H-indol-3-yl)pyrimidin-2-yl)-N^1-methylbenzene-1,2,4-triamine]",1140
12,"CC(=O)Nc1cc(Nc2ncc(F)c(-c3c[nH]c4c(F)cccc34)n2)ccc1N(C)CCN(C)C [Compound 521, N-(2-((2-(dimethylamino)ethyl)(methyl)amino)-5-((5-fluoro-4-(7-fluoro-1H-indol-3-yl)pyrimidin-2-yl)amino)phenyl)acetamide]",695
13,"CCC(=O)Nc1cc(Nc2nccc(-c3c[nH]c4c(F)cccc34)n2)ccc1N(C)CCN(C)C [Compound 547, N-(2-((2-(dimethylamino)ethyl)(methyl)amino)-5-((4-(7-fluoro-1H-indol-3-yl)pyrimidin-2-yl)amino)phenyl)propionamide]",1180
14,"Cc1cccc2c(-c3ccnc(Nc4ccc(N(C)CCN(C)C)c(N)c4)n3)c[nH]c12 [Compound 549, N^1-(2-(dimethylamino)ethyl)-N^1-methyl-N^4-(4-(7-methyl-1H-indol-3-yl)pyrimidin-2-yl)benzene-1,2,4-triamine]",682
15,"CCC(=O)Nc1cc(Nc2ncc(C(F)(F)F)c(-c3c[nH]c4c(C)cccc34)n2)ccc1N(C)CCN(C)C [Compound 542, N-(2-((2-(dimethylamino)ethyl)(methyl)amino)-5-((4-(7-methyl-1H-indol-3-yl)-5-(trifluoromethyl)pyrimidin-2-yl)amino)phenyl)propionamide]",80.4
16,"COc1cccc2c(-c3nc(Nc4ccc(N(C)CCN(C)C)c(NC(C)=O)c4)ncc3F)c[nH]c12 [Compound 529, N-(2-((2-(dimethylamino)ethyl)(methyl)amino)-5-((5-fluoro-4-(7-methoxy-1H-indol-3-yl)pyrimidin-2-yl)amino)phenyl)acetamide]",958
17,"COc1cnc(Nc2ccc(N(C)CCN(C)C)c(N)c2)nc1-c1c[nH]c2c(C)cccc12 [Compound 532, N^1-(2-(dimethylamino)ethyl)-N^1-methyl-N^4-(5-methoxy-4-(7-methyl-1H-indol-3-yl)pyrimidin-2-yl)benzene-1,2,4-triamine]",791
18,"CC(=O)Nc1cc(Nc2nccc(-c3c[nH]c4c(C)cccc34)n2)ccc1N(C)CCN(C)C [Compound 551, N-(2-((2-(dimethylamino)ethyl)(methyl)amino)-5-((4-(7-methyl-1H-indol-3-yl)pyrimidin-2-yl)amino)phenyl)acetamide]",1540
19,"COc1cnc(Nc2ccc(N(C)CCN(C)C)c(N)c2)nc1-c1c[nH]c2c(OC)cccc12 [Compound 536, N^1-(2-(dimethylamino)ethyl)-N^1-methyl-N^4-(5-methoxy-4-(7-methoxy-1H-indol-3-yl)pyrimidin-2-yl)benzene-1,2,4-triamine]",837

# Same assay, conditions: treated with test compounds for 72 hrs, CCK-8 viability, read-out: EGFR IC50 in H1975
row,SMILES,IC50 [nM]
1,"CC(=O)Nc1cc(Nc2ncc(C(F)(F)F)c(-c3cn(C)c4ccccc34)n2)ccc1N(C)CCN(C)C [Compound 305, N-(2-((2-(dimethylamino)ethyl)(methyl)amino)-5-((4-(1-methyl-1H-indol-3-yl)-5-(trifluoromethyl)pyrimidin-2-yl)amino)phenyl)acetamide]",653
2,"CC(=O)Nc1cc(Nc2nc(-c3c[nH]c4ccccc34)c3cc[nH]c3n2)cc(F)c1N(C)CCN(C)C [Compound 248b, N-(5-((4-(1H-indol-3-yl)-7H-pyrrolo[2,3-d]pyrimidin-2-yl)amino)-2-((2-(dimethylamino)ethyl)(methyl)amino)-3-fluorophenyl)acetamide]",1050
3,"COc1cnc(Nc2ccc(N(C)CCN(C)C)c(NC(C)=O)c2)nc1-c1c[nH]c2c(C)cccc12 [Compound 537, N-(2-((2-(dimethylamino)ethyl)(methyl)amino)-5-((5-methoxy-4-(7-methyl-1H-indol-3-yl)pyrimidin-2-yl)amino)phenyl)acetamide]",1080

# Test system: KM12-luc cells
# Experiment: Cell proliferation and growth inhibition assay (CCK-8) in KM12-luc
# Format: cell-based
# Conditions: KM12-luc cells, treated with test compounds for 72 hrs, CCK-8 viability; read-out: NTRK IC50 in KM12-luc
# Procedure, shortened: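 Cells were grown at 37 °C, 5% CO2 with 10% FBS: MV-4-11 in IMDM, H1975 in RPMI 1640, KM12-luc in DMEM. Viability was read by CCK-8 (1-4 hrs reagent incubation, absorbance at OD450). IC50 came from a non-linear sigmoidal dose-response fit.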
row,SMILES,IC50 [nM]
1,"CC(=O)Nc1cc(Nc2ncc(C(F)(F)F)c(-c3cn(C)c4ccccc34)n2)ccc1N(C)CCN(C)C [Compound 305, N-(2-((2-(dimethylamino)ethyl)(methyl)amino)-5-((4-(1-methyl-1H-indol-3-yl)-5-(trifluoromethyl)pyrimidin-2-yl)amino)phenyl)acetamide]",28.9
2,"CC(=O)Nc1cc(Nc2nc(-c3c[nH]c4ccccc34)c3cc[nH]c3n2)cc(F)c1N(C)CCN(C)C [Compound 248b, N-(5-((4-(1H-indol-3-yl)-7H-pyrrolo[2,3-d]pyrimidin-2-yl)amino)-2-((2-(dimethylamino)ethyl)(methyl)amino)-3-fluorophenyl)acetamide]",17.1
